From patent US20040044006A1, “Methods of use of quinolone compounds against pneumococcal and haemophilus bacteria” (priority 1999, published 2004)
Converted amounts (≈) assume the structure as drawn. Like-named read-outs stand apart in the source and are kept apart here.

Experiments:
[1] = tested on: quinolone resistant pneumococci; assay: Determination of efflux mechanism: MICs in the presence and absence of reserpine; type: cell-based, Streptococcus pneumoniae
Experimental: MICs were determined in the presence and absence of 10 μg/ml of reserpine (Sigma Chemicals, St. Louis, Mo.) as known in the art.
MICs were determined in the presence and absence of […] of reserpine (Sigma Chemicals, St. Louis, Mo., USA) as described previously (Brenwald, et al., Antimicrob. Agents Chemother. 42:2039-2035, 1998 and Davies, et al., Antimicrob. Agents Chemother. 43:1177-1182S, 1999).

[2] = tested on: pneumococci with ciprofloxacin MICs ≧8 μg/ml; assay: Quinolone agar dilution MICs of 28 ciprofloxacin resistant pneumococcal strains, correlated with QRDR mutations; type: cell-based, Streptococcus pneumoniae
Experimental: Additionally these strains were tested for mutations in parC, gyrA, parE, and gyrB (Pan, et al. Antimicrob. Agents Chemother. 40:2321-2326, 1996) and for efflux mechanism (Brenwald, et ail., Antimicrob. Agents Chemother. 42:2032-2035, 1998).
Gemifloxacin susceptibility powder was obtained from SmithKline Beecham Laboratories, Harlow, UK. Agar dilution methodology was performed on 28 strains as described previously (M. R. Jacobs, Clin. Infect. Dis. 15: 119-127, […] and M. R. Jacobs, Rev. Med. Microbiol. 6:77-93, 1995), using Mueller-Hinton altar (BBL Microbiology Systems, Cockeysville, Md.) supplemented with 5% sheep blood. Standard quality control strains, including Streptococcus pneumoniae ATCC 49619, were included in each run of agar dilution MICs.

[3] = tested on: pneumococci (5 quinolone susceptible and 1 resistant strains); assay: Post-antibiotic effect (PAE) testing; type: cell-based, Streptococcus pneumoniae
In short: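 Pneumococci (~5×10^6 cfu/ml) in MHB with 5% lysed horse blood were exposed 1 h at 35 °C, the quinolone-resistant strain at 5×MIC, then diluted 1:1000. Viable counts every 2 h until McFarland #1 turbidity. PAE = T − C, the 1 log10 regrowth time versus untreated control; mean of two assays ±SD.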

[4] = tested on: pneumococcal strains; assay: Microbroth dilution MICs of strains tested by time-kill and PAE; type: cell-based; settings: Streptococcus pneumoniae, read-out: Microdilution MIC
In short: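 S. pneumoniae ATCC 49619 served as control in each run. For the 12 time-kill and 6 PAE strains, MICs came from NCCLS microbroth dilution using cation-adjusted Mueller-Hinton broth plus 5% lysed defibrinated horse blood.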

[5] = agar dilution, 28 strains with ciprofloxacin MICs ≧8.0 μg/ml

## C[C@@H]1CN(c2c(F)c(N)c3c(=O)c(C(=O)O)cn(C4CC4)c3c2F)C[C@H](C)N1 [Sparfloxacin, sparfloxacin]
[1]; 28 quinolone resistant strains, 10 μg/ml reserpine
  lower MICs in the presence of reserpine, fold range over affected strains: 2 ×
[1]; of 28 quinolone resistant strains, 10 μg/ml reserpine
  number of strains with lower MICs in the presence of reserpine: one
[1]; strain 5
  Number of dilutions decrease after incubation with reserpine: 2X
[1]; strain 5, 10 μg/ml reserpine
  lower MIC in the presence of reserpine (efflux mechanism): 2X
[2]; Streptococcus pneumoniae
  MIC50: 8 µg/mL (≈ 20.4 µM)
  MIC90: 16 µg/mL (≈ 40.8 µM)
[2]; Streptococcus pneumoniae, read-out: MICs in strains with three or four QRDR mutations, 20 strains, bound holds in all 20 (ciprofloxacin, levofloxacin, sparfloxacin), 19 (grepafloxacin), 10 (trovafloxacin), 18 (gemifloxacin)
  MIC: > 1 µg/mL
[2]; Streptococcus pneumoniae, read-out: MICs in strains with three or four QRDR mutations, 21 strains, bound holds in all 21 (ciprofloxacin, levofloxacin, sparfloxacin), 20 (grepafloxacin), 11 (trovafloxacin), 19 (gemifloxacin)
  MIC: ≥ 1 µg/mL
[2]; Streptococcus pneumoniae, strain 1, ParC S79-F, ParE I460-V, GyrA S81-F, GyrB None
  MIC: 4 µg/mL (≈ 10.2 µM)
[2]; Streptococcus pneumoniae, strain 1, ParC S79-F, ParE I460-V, GyrA S83-F, GyrB None
  MIC: 4 µg/mL (≈ 10.2 µM)
[2]; Streptococcus pneumoniae, strain 3, ParC D83-N, ParE I460-V, GyrA S81-F, GyrB None
  MIC: 1 µg/mL (≈ 2.55 µM)
[2]; Streptococcus pneumoniae, strain 3, ParC D83-N, ParE I460-V, GyrA S83-F, GyrB None
  MIC: 1 µg/mL (≈ 2.55 µM)
[2]; Streptococcus pneumoniae, strain 4, ParC S79-F, ParE I460-V, GyrA S81-F, GyrB None
  MIC: 1 µg/mL (≈ 2.55 µM)
[2]; Streptococcus pneumoniae, strain 4, ParC S79-F, ParE I460-V, GyrA S83-F, GyrB None
  MIC: 1 µg/mL (≈ 2.55 µM)
[2]; Streptococcus pneumoniae, strain 5, ParC R95-C, ParE D435-N, GyrA S81-F, GyrB None
  MIC: 1 µg/mL (≈ 2.55 µM)
[2]; Streptococcus pneumoniae, strain 5, ParC R95-C, ParE D435-N, GyrA S83-F, GyrB None
  MIC: 1 µg/mL (≈ 2.55 µM)
[2]; Streptococcus pneumoniae, strain 6, ParC S79-Y, ParE I460-V, GyrA E85-K, GyrB None
  MIC: 8 µg/mL (≈ 20.4 µM)
[2]; Streptococcus pneumoniae, strain 6, ParC S79-Y, ParE I460-V, GyrA E87-K, GyrB None
  MIC: 8 µg/mL (≈ 20.4 µM)
[2]; Streptococcus pneumoniae, strain 7, ParC None, ParE I460-V, GyrA None, GyrB None
  MIC: 1 µg/mL (≈ 2.55 µM)
[2]; Streptococcus pneumoniae, strain 8, ParC S79-Y, ParE None, GyrA None, GyrB None
  MIC: 1 µg/mL (≈ 2.55 µM)
[2]; Streptococcus pneumoniae, strain 9, ParC S79-Y, ParE None, GyrA None, GyrB None
  MIC: 2 µg/mL (≈ 5.1 µM)
[2]; Streptococcus pneumoniae, strain 10, ParC S79-F, ParE I460-V, GyrA S81-C, GyrB None
  MIC: 4 µg/mL (≈ 10.2 µM)
[2]; Streptococcus pneumoniae, strain 10, ParC S79-F, ParE I460-V, GyrA S83-C, GyrB None
  MIC: 4 µg/mL (≈ 10.2 µM)
[2]; Streptococcus pneumoniae, strain 11, ParC S79-F, ParE I460-V, GyrA S81-F, GyrB None
  MIC: 4 µg/mL (≈ 10.2 µM)
[2]; Streptococcus pneumoniae, strain 11, ParC S79-F, ParE I460-V, GyrA S83-F, GyrB None
  MIC: 4 µg/mL (≈ 10.2 µM)
[2]; Streptococcus pneumoniae, strain 12, ParC S79-F, ParE I460-V, GyrA None, GyrB D435-N
  MIC: 1 µg/mL (≈ 2.55 µM)
[2]; Streptococcus pneumoniae, strain 13, ParC S79-F, ParE I460-V, GyrA None, GyrB E474-K
  MIC: 8 µg/mL (≈ 20.4 µM)
[2]; Streptococcus pneumoniae, strain 14, ParC S79-F, ParE I460-V, GyrA S81-F, GyrB None
  MIC: 8 µg/mL (≈ 20.4 µM)
[2]; Streptococcus pneumoniae, strain 14, ParC S79-F, ParE I460-V, GyrA S83-F, GyrB None
  MIC: 8 µg/mL (≈ 20.4 µM)
[2]; Streptococcus pneumoniae, strain 15, ParC 79-F, ParE I460-V, GyrA S83-F, GyrB None
  MIC: 8 µg/mL (≈ 20.4 µM)
[2]; Streptococcus pneumoniae, strain 15, ParC S79-F, ParE I460-V, GyrA S81-F, GyrB None
  MIC: 8 µg/mL (≈ 20.4 µM)
[2]; Streptococcus pneumoniae, strain 16, ParC S79-F, ParE I460-V, GyrA S81-F, GyrB None
  MIC: 8 µg/mL (≈ 20.4 µM)
[2]; Streptococcus pneumoniae, strain 16, ParC S79-F, ParE I460-V, GyrA S83-F, GyrB None
  MIC: 8 µg/mL (≈ 20.4 µM)
[2]; Streptococcus pneumoniae, strain 17, ParC D83-N, ParE None, GyrA S81-F, GyrB None
  MIC: 8 µg/mL (≈ 20.4 µM)
[2]; Streptococcus pneumoniae, strain 17, ParC D83-N, ParE None, GyrA S83-F, GyrB None
  MIC: 8 µg/mL (≈ 20.4 µM)
[2]; Streptococcus pneumoniae, strain 18, ParC S79-F, ParE I460-V, GyrA S81-F, GyrB None
  MIC: 8 µg/mL (≈ 20.4 µM)
[2]; Streptococcus pneumoniae, strain 18, ParC S79-F, ParE I460-V, GyrA S83-F, GyrB None
  MIC: 8 µg/mL (≈ 20.4 µM)
[2]; Streptococcus pneumoniae, strain 19, ParC S79-F, ParE I460-V, GyrA S81-F, GyrB None
  MIC: 8 µg/mL (≈ 20.4 µM)
[2]; Streptococcus pneumoniae, strain 19, ParC S79-F, ParE I460-V, GyrA S83-F, GyrB None
  MIC: 8 µg/mL (≈ 20.4 µM)
[2]; Streptococcus pneumoniae, strain 20, ParC S79-F, ParE I460-V, GyrA E85-K, GyrB None
  MIC: 8 µg/mL (≈ 20.4 µM)
[2]; Streptococcus pneumoniae, strain 20, ParC S79-F, ParE I460-V, GyrA E87-K, GyrB None
  MIC: 8 µg/mL (≈ 20.4 µM)
[2]; Streptococcus pneumoniae, strain 21, ParC S79-F, ParE I460-V, GyrA S81-F, GyrB None
  MIC: 8 µg/mL (≈ 20.4 µM)
[2]; Streptococcus pneumoniae, strain 21, ParC S79-F, ParE I460-V, GyrA S83-F, GyrB None
  MIC: 8 µg/mL (≈ 20.4 µM)
[2]; Streptococcus pneumoniae, strain 22, ParC S79-F, ParE I460-V, GyrA S81-Y, GyrB None
  MIC: 8 µg/mL (≈ 20.4 µM)
[2]; Streptococcus pneumoniae, strain 22, ParC S79-F, ParE I460-V, GyrA S83-Y, GyrB None
  MIC: 8 µg/mL (≈ 20.4 µM)
[2]; Streptococcus pneumoniae, strain 23, ParC S79-Y, ParE None, GyrA S81-A, GyrB None
  MIC: 8 µg/mL (≈ 20.4 µM)
[2]; Streptococcus pneumoniae, strain 23, ParC S79-Y, ParE None, GyrA S83-A, GyrB None
  MIC: 8 µg/mL (≈ 20.4 µM)
[2]; Streptococcus pneumoniae, strain 26, ParC S79-F, ParE None, GyrA S81-Y, GyrB None
  MIC: > 32 µg/mL
[2]; Streptococcus pneumoniae, strain 26, ParC S79-F, ParE None, GyrA S83-Y, GyrB None
  MIC: > 32 µg/mL
[2]; Streptococcus pneumoniae, strain 27, ParC S79-Y, ParE I460-V, GyrA S81-F, GyrB None
  MIC: > 32 µg/mL
[2]; Streptococcus pneumoniae, strain 27, ParC S79-Y, ParE I460-V, GyrA S83-F, GyrB None
  MIC: > 32 µg/mL
[2]; Streptococcus pneumoniae, strain 28, ParC D83-G N91-D, ParE None, GyrA S81-F S114-G, GyrB None
  MIC: > 32 µg/mL
[2]; Streptococcus pneumoniae, strain 28, ParC cell empty, ParE None, GyrA S83-F and S116-G, GyrB None
  MIC: > 32 µg/mL
[2]; [5]
  MIC50: 8.0 µg/mL (≈ 20.4 µM)
  MIC90: 16.0 µg/mL (≈ 40.8 µM)
[3]; 5×MIC, quinolone resistant strain
  PAE: 1.5 h
[3]; 10×MIC for 1 h, range over 5 quinolone susceptible strains
  PAE: 0.3 to 2.0 h
[4]; strain 1 (S) penicillin susceptible
  MIC: 0.125 µg/mL (≈ 0.319 µM)
[4]; strain 2 (S) penicillin susceptible
  MIC: 0.25 µg/mL (≈ 0.637 µM)
[4]; strain 3 (S) penicillin susceptible, quinolone-resistant
  MIC: 32 µg/mL (≈ 81.5 µM)
[4]; strain 4 (S) penicillin susceptible, quinolone-resistant
  MIC: 16 µg/mL (≈ 40.8 µM)
[4]; strain 5 (I) penicillin intermediate
  MIC: 0.5 µg/mL (≈ 1.27 µM)
[4]; strain 6 (I) penicillin intermediate
  MIC: 0.25 µg/mL (≈ 0.637 µM)
[4]; strain 7 (I) penicillin intermediate
  MIC: 0.25 µg/mL (≈ 0.637 µM)
[4]; strain 8 (I) penicillin intermediate
  MIC: 0.25 µg/mL (≈ 0.637 µM)
[4]; strain 9 (R) penicillin resistant
  MIC: 0.5 µg/mL (≈ 1.27 µM)
[4]; strain 10 (I)
  MIC: 0.25 µg/mL (≈ 0.637 µM)
[4]; strain 11 (R) penicillin resistant
  MIC: 0.25 µg/mL (≈ 0.637 µM)
[4]; strain 12 (R) penicillin resistant
  MIC: 0.5 µg/mL (≈ 1.27 µM)
